Oligonucleotides are written 5' to 3', each unit as a sugar letter and its base; * is a phosphorothioate linkage, no mark a phosphodiester; rarer units and linkages stand in square brackets, end groups in braces. Plain capitals give the bases only. e = 2'-O-(2-methoxyethyl) (MOE); [5mC] = 5-methylcytosine; d = 2'-deoxy (DNA)

Results on 33 sequences are retold here after patent US8258114B2, “Modulation of glucose-6-phosphatase translocase expression” (Isis Pharmaceuticals, Inc., priority 2004, dated 2012).

The series concerns mouse glucose-6-phosphatase translocase mRNA. Nature of the series: Antisense inhibition of mouse glucose-6-phosphatase translocase mRNA in primary mouse hepatocytes, 50 nM (Table 5). The series is classed as cell-based. To be noted: 50 nM oligonucleotide, mRNA by real-time PCR, normalized with RIBOGREEN
How it is done: Primary mouse hepatocytes were prepared from CD-1 mice purchased from Charles River Labs. Primary mouse hepatocytes were routinely cultured in Hepatocyte Attachment Media supplemented with 10% fetal bovine serum (Invitrogen Life Technologies, Carlsbad, Calif.), 250 nM dexamethasone, and 10 nM bovine insulin (Sigma-Aldrich, St. Louis, Mo.). Cells were seeded into 96-well plates (Falcon-Primaria #353872, BD Biosciences, Bedford, Mass.) at a density of approximately 4,000-6,000 cells/well for use in oligomeric compound transfection experiments.
Quantitation of glucose 6-phosphatase translocase mRNA levels was accomplished by real-time quantitative PCR using the ABI PRISM™ 7600, 7700, or 7900 Sequence Detection System (PE-Applied Biosystems, Foster City, Calif.) according to manufacturer's instructions.
Prior to quantitative PCR analysis, primer-probe sets specific to the target gene being measured were evaluated for their ability to be “multiplexed” with a GAPDH amplification reaction. After isolation the RNA is subjected to sequential reverse transcriptase (RT) reaction and real-time PCR, both of which are performed in the same well. RT and PCR reagents were obtained from Invitrogen Life Technologies (Carlsbad, Calif.). […] The RT reaction was carried out by incubation for 30 minutes at 48° C. Following a 10 minute incubation at 95° C. to activate the PLATINUM® Taq, 40 cycles of a two-step PCR protocol were carried out: 95° C. for 15 seconds (denaturation) followed by 60° C. for 1.5 minutes (annealing/extension).
Gene target quantities obtained by RT, real-time PCR were normalized using either the expression level of GAPDH, a gene whose expression is constant, or by quantifying total RNA using RiboGreen™ (Molecular Probes, Inc. Eugene, Oreg.). GAPDH expression was quantified by RT, real-time PCR, by being run simultaneously with the target, multiplexing, or separately. Total RNA was quantified using RiboGreen™ RNA quantification reagent (Molecular Probes, Inc. Eugene, Oreg.).
A series of oligomeric compounds was designed to target different regions of mouse glucose-6-phosphatase translocase, using published sequences cited in Table 1. All compounds in Table 5 are chimeric oligonucleotides (“gapmers”) 20 nucleotides in length, composed of a central “gap” region consisting of 10 2′-deoxynucleotides, which is flanked on both sides (5′ and 3′) by five-nucleotide “wings”. The wings are composed of 2′-O-(2-methoxyethyl) nucleotides, also known as 2′-MOE nucleotides. The internucleoside (backbone) linkages are phosphorothioate throughout the oligonucleotide. All cytidine residues are 5-methylcytidines. The compounds were analyzed for their effect on gene target mRNA levels by quantitative real-time PCR as described in other examples herein, using the following primer-probe set designed to hybridize to mouse glucose-6-phosphatase translocase: • forward primer: […] (SEQ ID NO: 66) • reverse primer: CCATCCCAGCCATCATGAG (SEQ ID NO: 67) and the PCR probe was: FAM-[…]-TAMRA (SEQ ID NO: 68) where FAM is the fluorescent reporter dye and TAMRA is the quencher dye. Mouse target gene quantities were normalized by quantifying total RNA using RIBOGREEN™.
Data are from experiments in which primary mouse hepatocytes were treated with 50 nM of the antisense oligonucleotides of the present invention. A reduction in expression is expressed as percent inhibition in Table 5. If present, “N.D.” indicates “not determined”. The target regions to which these oligomeric compounds are inhibitory are herein referred to as “validated target segments.”
As to “ATGAGAGGTTCCACACAAGT (eA*eT*eG*eA*eG*dA*dG*dG*dT*dT*d[5mC]*d[5mC]*dA*d[5mC]*dA*e[5mC]*eA*eA*eG*eT; antisense) [ISIS 148979]”, the “% Inhib” value is given as 54%.

Consider “ATGGAGTCTAGAACCAAACG (eA*eT*eG*eG*eA*dG*dT*d[5mC]*dT*dA*dG*dA*dA*d[5mC]*d[5mC]*eA*eA*eA*e[5mC]*eG; antisense) [ISIS 148995]”, for which the “% Inhib” value was determined as 56%.

Turning to “CACAGAAACGTAAAGGTTCT (e[5mC]*eA*e[5mC]*eA*eG*dA*dA*dA*d[5mC]*dG*dT*dA*dA*dA*dG*eG*eT*eT*e[5mC]*eT; antisense) [ISIS 148991]”, the “% Inhib” value amounted to 22%.

With “CACAGACTCTTGACTGCTCC (e[5mC]*eA*e[5mC]*eA*eG*dA*d[5mC]*dT*d[5mC]*dT*dT*dG*dA*d[5mC]*dT*eG*e[5mC]*eT*e[5mC]*e[5mC]; antisense) [ISIS 148939]”, the “% Inhib” value is 41%.

Regarding “CACGGCTCCCAAAACCAGGA (e[5mC]*eA*e[5mC]*eG*eG*d[5mC]*dT*d[5mC]*d[5mC]*d[5mC]*dA*dA*dA*dA*d[5mC]*e[5mC]*eA*eG*eG*eA; antisense) [ISIS 148977]”, the “% Inhib” value worked out at 9%.

Consider “CAGAGCGATCTCATCCACCA (e[5mC]*eA*eG*eA*eG*d[5mC]*dG*dA*dT*d[5mC]*dT*d[5mC]*dA*dT*d[5mC]*e[5mC]*eA*e[5mC]*e[5mC]*eA; antisense) [ISIS 148944]”, for which the “% Inhib” value is given as 35%.

As to “CAGAGGGTCCAGATTTCGGA (e[5mC]*eA*eG*eA*eG*dG*dG*dT*d[5mC]*d[5mC]*dA*dG*dA*dT*dT*eT*e[5mC]*eG*eG*eA; antisense) [ISIS 148959]”, the “% Inhib” value is reported as −6%.

As to “CCAAACTGGGATGGCTCAAA (e[5mC]*e[5mC]*eA*eA*eA*d[5mC]*dT*dG*dG*dG*dA*dT*dG*dG*d[5mC]*eT*e[5mC]*eA*eA*eA; antisense) [ISIS 148954]”, the “% Inhib” value was 48%.

As for “CCAAACTTCCAGCCAGGTTC (e[5mC]*e[5mC]*eA*eA*eA*d[5mC]*dT*dT*d[5mC]*d[5mC]*dA*dG*d[5mC]*d[5mC]*dA*eG*eG*eT*eT*e[5mC]; antisense) [ISIS 148956]”, the “% Inhib” value was 27%.

Take “CCACAGGCCATTAATACTCA (e[5mC]*e[5mC]*eA*e[5mC]*eA*dG*dG*d[5mC]*d[5mC]*dA*dT*dT*dA*dA*dT*eA*e[5mC]*eT*e[5mC]*eA; antisense) [ISIS 148999]”: the “% Inhib” value is 45%.

For “CCAGTGGACAGCACCCAGAG (e[5mC]*e[5mC]*eA*eG*eT*dG*dG*dA*d[5mC]*dA*dG*d[5mC]*dA*d[5mC]*d[5mC]*e[5mC]*eA*eG*eA*eG; antisense) [ISIS 148960]”, the “% Inhib” value was determined as 28%.

As for “CCATTAAGAAACCAAGGAGC (e[5mC]*e[5mC]*eA*eT*eT*dA*dA*dG*dA*dA*dA*d[5mC]*d[5mC]*dA*dA*eG*eG*eA*eG*e[5mC]; antisense) [ISIS 148952]”, the “% Inhib” value is listed as 20%.

On to “CCGTAGCCTTGGGCTGCCAT (e[5mC]*e[5mC]*eG*eT*eA*dG*d[5mC]*d[5mC]*dT*dT*dG*dG*dG*d[5mC]*dT*eG*e[5mC]*e[5mC]*eA*eT; antisense) [ISIS 148941]”, for which the “% Inhib” value was found to be 62%.

Turning to “CCGTGTCCTGCCAGTAAGGC (e[5mC]*e[5mC]*eG*eT*eG*dT*d[5mC]*d[5mC]*dT*dG*d[5mC]*d[5mC]*dA*dG*dT*eA*eA*eG*eG*e[5mC]; antisense) [ISIS 148986]”, the “% Inhib” value is given as 55%.

As for “CCTAGGAGAAGAAGAAGGGT (e[5mC]*e[5mC]*eT*eA*eG*dG*dA*dG*dA*dA*dG*dA*dA*dG*dA*eA*eG*eG*eG*eT; antisense) [ISIS 148998]”, the “% Inhib” value is 21%.

In the case of “CGAGGGTTCCCATACAGAGA (e[5mC]*eG*eA*eG*eG*dG*dT*dT*d[5mC]*d[5mC]*d[5mC]*dA*dT*dA*d[5mC]*eA*eG*eA*eG*eA; antisense) [ISIS 148971]”, the “% Inhib” value turned out to be 88%.

As for “CGCCATGGCCCTGTCTGACA (e[5mC]*eG*e[5mC]*e[5mC]*eA*dT*dG*dG*d[5mC]*d[5mC]*d[5mC]*dT*dG*dT*d[5mC]*eT*eG*eA*e[5mC]*eA; antisense) [ISIS 148969]”, the “% Inhib” value is 24%.

“CGTCATCATTTTAAATAGAG (e[5mC]*eG*eT*e[5mC]*eA*dT*d[5mC]*dA*dT*dT*dT*dT*dA*dA*dA*eT*eA*eG*eA*eG; antisense) [ISIS 148994]”: the “% Inhib” value is listed as 10%.

Regarding “CTGATGGCGTAGGCTGCCGA (e[5mC]*eT*eG*eA*eT*dG*dG*d[5mC]*dG*dT*dA*dG*dG*d[5mC]*dT*eG*e[5mC]*e[5mC]*eG*eA; antisense) [ISIS 148950]”, the “% Inhib” value was found to be 0%.

Take “CTGCTGGCCCACTCCAGTAC (e[5mC]*eT*eG*e[5mC]*eT*dG*dG*d[5mC]*d[5mC]*d[5mC]*dA*d[5mC]*dT*d[5mC]*d[5mC]*eA*eG*eT*eA*e[5mC]; antisense) [ISIS 148940]”: the “% Inhib” value came to 61%.

For “CTTGTCCAGAGCGATCTCAT (e[5mC]*eT*eT*eG*eT*d[5mC]*d[5mC]*dA*dG*dA*dG*d[5mC]*dG*dA*dT*e[5mC]*eT*e[5mC]*eA*eT; antisense) [ISIS 148945]”, the “% Inhib” value came out at 35%.

Consider “CTTTCCGTGTCCTGCCAGTA (e[5mC]*eT*eT*eT*e[5mC]*d[5mC]*dG*dT*dG*dT*d[5mC]*d[5mC]*dT*dG*d[5mC]*e[5mC]*eA*eG*eT*eA; antisense) [ISIS 148987]”, for which the “% Inhib” value amounted to 45%.

Regarding “GAAGGGTATAGGAGACACCC (eG*eA*eA*eG*eG*dG*dT*dA*dT*dA*dG*dG*dA*dG*dA*e[5mC]*eA*e[5mC]*e[5mC]*e[5mC]; antisense) [ISIS 148997]”, the “% Inhib” value was 57%.

“GACTGCTCCTGCTTGCAGCT (eG*eA*e[5mC]*eT*eG*d[5mC]*dT*d[5mC]*d[5mC]*dT*dG*d[5mC]*dT*dT*dG*e[5mC]*eA*eG*e[5mC]*eT; antisense) [ISIS 148938]”: the “% Inhib” value came out at 50%.

Consider “GAGCCCCAAATCGTCCTTGT (eG*eA*eG*e[5mC]*e[5mC]*d[5mC]*d[5mC]*dA*dA*dA*dT*d[5mC]*dG*dT*d[5mC]*e[5mC]*eT*eT*eG*eT; antisense) [ISIS 148947]”, for which the “% Inhib” value is 37%.

On to “GAGCTACCCACAAGGGCGGA (eG*eA*eG*e[5mC]*eT*dA*d[5mC]*d[5mC]*d[5mC]*dA*d[5mC]*dA*dA*dG*dG*eG*e[5mC]*eG*eG*eA; antisense) [ISIS 148965]”, for which the “% Inhib” value came out at 16%.

Take “GAGGTTCCACACAAGTTGGG (eG*eA*eG*eG*eT*dT*d[5mC]*d[5mC]*dA*d[5mC]*dA*d[5mC]*dA*dA*dG*eT*eT*eG*eG*eG; antisense) [ISIS 148978]”: the “% Inhib” value is 34%.

With “GCAGCCGCTCTCCTTTCCGT (eG*e[5mC]*eA*eG*e[5mC]*d[5mC]*dG*d[5mC]*dT*d[5mC]*dT*d[5mC]*d[5mC]*dT*dT*eT*e[5mC]*e[5mC]*eG*eT; antisense) [ISIS 148988]”, the “% Inhib” value came out at 73%.

For “GCCAGTGTGCTGCGCCAGCT (eG*e[5mC]*e[5mC]*eA*eG*dT*dG*dT*dG*d[5mC]*dT*dG*d[5mC]*dG*d[5mC]*e[5mC]*eA*eG*e[5mC]*eT; antisense) [ISIS 148957]”, the “% Inhib” value amounted to 57%.

With “GCCCCAGTCTGTACAGCAAG (eG*e[5mC]*e[5mC]*e[5mC]*e[5mC]*dA*dG*dT*d[5mC]*dT*dG*dT*dA*d[5mC]*dA*eG*e[5mC]*eA*eA*eG; antisense) [ISIS 148963]”, the “% Inhib” value is given as 55%.

For the sequence “GCCGCAAATATGACAGTGCG (eG*e[5mC]*e[5mC]*eG*e[5mC]*dA*dA*dA*dT*dA*dT*dG*dA*d[5mC]*dA*eG*eT*eG*e[5mC]*eG; antisense) [ISIS 148942]”, the “% Inhib” value amounted to 17%.

For the sequence “GCTCACAAACTTGCTGATGG (eG*e[5mC]*eT*e[5mC]*eA*d[5mC]*dA*dA*dA*d[5mC]*dT*dT*dG*d[5mC]*dT*eG*eA*eT*eG*eG; antisense) [ISIS 148951]”, the “% Inhib” value was found to be 57%.

Consider “GCTGAAGGGTAAGCCAGCCA (eG*e[5mC]*eT*eG*eA*dA*dG*dG*dG*dT*dA*dA*dG*d[5mC]*d[5mC]*eA*eG*e[5mC]*e[5mC]*eA; antisense) [ISIS 148980]”, for which the “% Inhib” value is 43%.
